Laboratory results published in patent US7892755B2, “Screening method” (Takeda Pharmaceutical Company Limited, priority 2004, dated 2011).

Legend:
Format in all cases: cell-based
[1] = test system: control CHO-K1 cells; assay: Changes in intracellular calcium levels on FLIPR, control CHO-K1 cells with only expression vector pAKKO-111H
Experimental: (§1) The CHO-K1 cell line (purchased from ATCC) was incubated in HAM F-12 medium (Invitrogen) supplemented with 10% fetal calf serum, unless otherwise indicated. On the day before transfection, the cells were inoculated at 4.5×10^5/10 cm^2 and incubated at 37° C. for 15 hours or more in a CO2 incubator adjusted to 5% CO2 concentration. Using Lipofectamine reagent (Invitrogen), transfection was performed according to modifications of the procedure attached to the reagent. When a 6-well plate was used as the incubator, the transfection was performed as follows. Two tubes each having a 1.5 ml volume were prepared and 100 μl each of Opti-MEM medium (Invitrogen) was dispensed in each tube. Next, 1 μg of the GPR35 expression vector obtained in REFERENCE EXAMPLE 1 and 0.5 μg of Gα15 expression vector (Guthrie cDNA Resource Center) were incorporated into one tube and in another tube, 6 μl of Lipofectamine reagent was charged, which were then mixed together. The mixture was settled for 20 minutes at room temperature. To the solution, 800 μl of Opti-MEM medium was added and the resulting solution mixture for transfection was added to the CHO-K1 cells, which had been previously washed with Opti-MEM medium. The cells were then incubated in a CO2 incubator for 6 hours. After the incubation, the cells were rinsed with PBS (Invitrogen), then detached by 0.05% trypsin-EDTA solution (Invitrogen) and recovered by centrifugal operation. The cells obtained were counted and diluted to 5×10^4 cells per 100 μl of the medium. The dilution was dispensed to a black walled 96-well plate (Costar) at 100 μl per well, followed by incubation overnight in a CO2 incubator. Various test samples were added to the CHO-K1 cells, in which the receptor was transiently expressed, by the transfection procedure described above, whereby changes in intracellular calcium levels were assayed on a FLIPR (Molecular Device).
(§2) To assay the changes in intracellular calcium levels on FLIPR, the following pretreatment was made. First, an assay buffer was prepared to add fluorescence dye Fluo-3AM (DOJIN) to the cells, or to wash the cells immediately before the FLIPR assay. A solution was prepared by adding 20 ml of 1M HEPES (pH 7.4) (DOJIN) to 1000 ml of HBSS (Invitrogen) (hereinafter HBSS/HEPES solution). To the solution, there was added 10 ml of a solution obtained by dissolving 710 mg of Probenecid (Sigma) in 5 ml of 1N NaOH and further adding 5 ml of HBSS/HEPES solution thereto and mixing them. The resulting solution was used as an assay buffer. Next, 50 μg of Fluo-3AM was dissolved in 21 μl of DMSO (DOJIN), and an equal volume of 20% pluronic acid (Molecular Probes) was added to the solution. After mixing them, the mixture was added to 10.6 ml of an assay buffer supplemented with 105 μl of fetal calf serum to give a fluorescence dye solution. After the medium for the transfected CHO-K1 cells was removed, the fluorescence dye solution was immediately dispensed at 100 μl each per well and incubation was carried out in a CO2 incubator for an hour to take up the fluorescence dye into the cells. The incubated cells were washed with the assay buffer described above and set on FLIPR. Test samples to be added to the receptor-expressed CHO-K1 cells were prepared using the assay buffer and simultaneously set on FLIPR.
After the pretreatment described above was made, changes in intracellular calcium levels by the addition of various test samples were assayed on FLIPR. […]

[2] = molecular target: T1, GPR35 (Homo sapiens, UniProt Q9HC97, S294R); assay: Changes in intracellular calcium levels on FLIPR, CHO-K1 cells transiently co-expressing GPR35 and Gα15; parameters: The resulting fragment (ca. 1 kb) was introduced into vector pAKKO-111; expressed in transfected cells; host or cells: CHO-K1 (ATCC), transient transfection; settings: Fluo-3AM, 0.3-10 μM shown for DNQX and ellagic acid (FIG. 1, 2)
T1 sequence (Q9HC97 whole entry S294R, the tested form may be a part): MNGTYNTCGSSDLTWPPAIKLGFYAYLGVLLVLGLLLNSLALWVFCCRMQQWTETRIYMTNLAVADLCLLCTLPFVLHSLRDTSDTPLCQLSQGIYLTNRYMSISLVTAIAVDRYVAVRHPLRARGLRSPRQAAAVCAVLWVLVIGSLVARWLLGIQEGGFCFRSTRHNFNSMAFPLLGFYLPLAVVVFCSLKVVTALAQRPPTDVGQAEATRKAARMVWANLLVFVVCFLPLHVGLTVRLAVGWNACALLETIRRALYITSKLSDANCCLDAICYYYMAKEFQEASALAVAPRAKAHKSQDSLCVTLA
Experimental: as §1, §2
After the pretreatment described above was made, changes in intracellular calcium levels by the addition of various test samples were assayed on FLIPR.

[3] = molecular target: T2, mouse GPR35 (Mus musculus, UniProt Q9ES90, D300Y/S286F); assay: Reactivity on FLIPR, CHO-K1 cells transfected with mouse GPR35 expression vector
T2 construct: the digestion product was inserted into plasmid vector pAKKO-111H; expressed in transfected cells; host or cells: CHO-K1 cells
T2 sequence (Q9ES90 whole entry S286F/D300Y): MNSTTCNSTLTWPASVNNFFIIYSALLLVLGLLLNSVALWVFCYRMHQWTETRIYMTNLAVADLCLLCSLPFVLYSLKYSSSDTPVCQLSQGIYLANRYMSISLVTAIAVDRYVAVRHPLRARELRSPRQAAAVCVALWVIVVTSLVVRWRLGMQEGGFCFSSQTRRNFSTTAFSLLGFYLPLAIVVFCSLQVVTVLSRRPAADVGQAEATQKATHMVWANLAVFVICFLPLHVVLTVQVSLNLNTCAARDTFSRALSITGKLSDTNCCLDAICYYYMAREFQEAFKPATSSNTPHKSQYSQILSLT
Experimental: The CHO-K1 cell line (purchased from ATCC) was incubated in HAM F-12 medium (Invitrogen) supplemented with 10% fetal calf serum, unless otherwise indicated. On the day before transfection, the cells were inoculated at 4.5×10^5/10 cm^2 and incubated at 37° C. for 15 hours or more in a CO2 incubator adjusted to 5% CO2 concentration. Using Lipofectamine reagent (Invitrogen), transfection was performed according to modifications of the procedure attached to the reagent. When a 6-well plate was used as the incubator, the transfection was performed as follows. Two tubes each having a 1.5 ml volume were prepared and 100 μl each of Opti-MEM medium (Invitrogen) was dispensed in each tube. […] The cells obtained were counted and diluted to 5×10^4 cells per 100 μl of the medium. […]
To assay the changes in intracellular calcium levels on FLIPR, the following pretreatment was made. First, an assay buffer was prepared to add fluorescence dye Fluo-3AM (DOJIN) to the cells, or to wash the cells immediately before the FLIPR assay. […] After mixing them, the mixture was added to 10.6 ml of an assay buffer supplemented with 105 μl of fetal calf serum to give a fluorescence dye solution. […]

[4] = molecular target: T1, GPR35; assay: Changes in intracellular calcium levels on FLIPR, CHO cell line stably co-expressing human GPR35 and Gα16; parameters: expressed in transfected cells
Experimental: The Gα16-stably expressed cell line (Gα16/CHO cell line) as a host cell was prepared by transfecting the Gα16 expression vector (Guthrie cDNA Resource Center) into CHO cells in a conventional manner and incubating at 37° C. under 5% CO2 in αMEM medium (containing nucleic acid; Invitrogen) supplemented with 10% fetal calf serum (Invitrogen), 50 units/ml penicillin/50 ug/ml streptomycin (CAMBREX) and 1 mg/ml geneticin (Invitrogen). The cells that were incubated for 2 days in αMEM medium (containing nucleic acid) supplemented only with 10% fetal calf serum charged in a 75 cm^2 flask were used for the transfection. The transfection was carried out using Lipofectamine reagent (Invitrogen) by a modification of the protocol attached to the reagent. First, 2 centrifuge tubes each having a 15 ml volume were prepared and 600 μl each of Opti-MEM medium (Invitrogen) was dispensed in each tube. Next, 4.8 μg of the expression vector was charged in one tube and in another tube 36 μl of Lipofectamine reagent was charged, which were mixed together. The mixture was settled for 20 minutes at room temperature. […] The cells obtained were counted and diluted with αMEM medium (containing no nucleic acid; Invitrogen) supplemented only with 10% dialyzed fetal calf serum to have 0.3, 1.5 and 7.5 cells per 100 μl of the medium. […]

N#Cc1cc2c(cc1[N+](=O)[O-])=NC(=O)C(=O)N=2 [6-cyano-7-nitroquinoxaline-2,3-dione]
response (increased intracellular calcium levels) in control cells [1]: not observed | response (increased intracellular calcium levels) [2]: dose-dependently responded (increased intracellular calcium levels)

O=C1N=c2cc([N+](=O)[O-])cc([N+](=O)[O-])c2=NC1=O [5,7-dinitroquinoxaline-2,3-dione]
response (increased intracellular calcium levels) in control cells [1]: not observed | response (increased intracellular calcium levels) [2]: dose-dependently responded (increased intracellular calcium levels)

O=c1oc2c(O)c(O)cc3c(=O)oc4c(O)c(O)cc1c4c23 [ellagic acid]
response (increased intracellular calcium levels) in control cells [1]: not observed | reactivity of mouse GPR35 (FLIPR) [3]: responsive | intracellular calcium levels [4]: increased | response (increased intracellular calcium levels) [2]: dose-dependently responded (increased intracellular calcium levels)
